Columns and labels:
Assay type in all cases: functional
Homo sapiens [1] = organism: Homo sapiens; assay: Mitogen-induced human lymphocyte proliferation measured by incorporation of [3H]thymidine in lymphocytes with Phytohemagglutininin at a concentration of 0.25 ug with compound at 50 uM
Homo sapiens [2] = organism: Homo sapiens; assay: Mitogen-induced human lymphocyte proliferation measured by incorporation of [3H]thymidine in lymphocytes with Pokeweed mitogen at a concentration of 1/2500 ug with compound at 10 uM
Homo sapiens [3] = organism: Homo sapiens; assay: Mitogen-induced human lymphocyte proliferation measured by incorporation of [3H]thymidine in lymphocytes with Phytohemagglutininin at a concentration of 0.125 ug without compound
Homo sapiens [4] = organism: Homo sapiens; assay: Mitogen-induced human lymphocyte proliferation measured by incorporation of [3H]thymidine in lymphocytes with Concanavalin A (Con A) at a concentration of 0.25 ug with out compound
Homo sapiens [5] = organism: Homo sapiens; assay: Mitogen-induced human lymphocyte proliferation measured by incorporation of [3H]thymidine in lymphocytes with Concanavalin A (Con A) at a concentration of 0.25 ug with compound at 10 uM
Homo sapiens [6] = organism: Homo sapiens; assay: Mitogen-induced human lymphocyte proliferation measured by incorporation of [3H]thymidine in lymphocytes with Pokeweed mitogen at a concentration of 1/2500 ug without compound
Homo sapiens [7] = organism: Homo sapiens; assay: Mitogen-induced human lymphocyte proliferation measured by incorporation of [3H]thymidine in lymphocytes with Pokeweed mitogen at a concentration of 1/2500 ug with compound at 50 uM
Homo sapiens [8] = organism: Homo sapiens; assay: Mitogen-induced human lymphocyte proliferation measured by incorporation of [3H]thymidine in lymphocytes with Phytohemagglutininin at a concentration of 0.25 ug with compound at 400 uM
Homo sapiens [9] = organism: Homo sapiens; assay: Mitogen-induced human lymphocyte proliferation measured by incorporation of [3H]thymidine in lymphocytes with Concanavalin A at a concentration of 0.25 ug with compound at 400 uM
Homo sapiens [10] = organism: Homo sapiens; assay: Mitogen-induced human lymphocyte proliferation measured by incorporation of [3H]thymidine in lymphocytes with Phytohemagglutininin at a concentration of 0.25 ug with compound at 10 uM
Homo sapiens [11] = organism: Homo sapiens; assay: Mitogen-induced human lymphocyte proliferation measured by incorporation of [3H]-thymidine in lymphocytes with Phytohemagglutininin at a concentration of 0.25 ug with compound at 0.1 uM
Homo sapiens [12] = organism: Homo sapiens; assay: Mitogen-induced human lymphocyte proliferation measured by incorporation of [3H]thymidine in lymphocytes with Pokeweed mitogen at a concentration of 1/2500 ug with compound at 1 uM.
Homo sapiens [13] = organism: Homo sapiens; assay: Mitogen-induced human lymphocyte proliferation measured by incorporation of [3H]thymidine in lymphocytes with Pokeweed mitogen at a concentration of 1/2500 ug with compound at 0.1 uM
Homo sapiens [14] = organism: Homo sapiens; assay: Mitogen-induced human lymphocyte proliferation measured by incorporation of [3H]thymidine in lymphocytes with Concanavalin A (Con A) at a concentration of 0.25 ug with compound at 0.1 uM
Homo sapiens [15] = organism: Homo sapiens; assay: Mitogen-induced human lymphocyte proliferation measured by incorporation of [3H]thymidine in lymphocytes with Concanavalin A (Con A) at a concentration of 0.25 ug with compound at 50 uM
Homo sapiens [16] = organism: Homo sapiens; assay: Mitogen-induced human lymphocyte proliferation measured by incorporation of [3H]thymidine in lymphocytes with Concanavalin A (Con A) at a concentration of 0.25 ug with compound at 1 uM
Homo sapiens [17] = organism: Homo sapiens; assay: Mitogen-induced human lymphocyte proliferation measured by incorporation of [3H]thymidine in lymphocytes with Pokeweed mitogen at a concentration of 1/2500 ug with compound at 400 uM
Homo sapiens [18] = organism: Homo sapiens; assay: Mitogen-induced human lymphocyte proliferation measured by incorporation of [3H]thymidine in lymphocytes with Phytohemagglutininin at a concentration of 0.25 ug with compound at 1 uM
Homo sapiens [19] = organism: Homo sapiens; assay: Mitogen-induced human lymphocyte proliferation measured by incorporation of [3H]thymidine in lymphocytes with Phytohemagglutininin at a concentration of 0.125 ug with compound at 1 uM
Homo sapiens [20] = organism: Homo sapiens; assay: Mitogen-induced human lymphocyte proliferation measured by incorporation of [3H]thymidine in lymphocytes with Phytohemagglutininin at a concentration of 0.125 ug with compound at 0.1 uM
Homo sapiens [21] = organism: Homo sapiens; assay: Mitogen-induced human lymphocyte proliferation measured by incorporation of [3H]thymidine in lymphocytes with Pokeweed mitogen at a concentration of 1/2500 ug with out compound
Homo sapiens [22] = organism: Homo sapiens; assay: Mitogen-induced human lymphocyte proliferation measured by incorporation of [3H]thymidine in lymphocytes with Phytohemagglutininin at a concentration of 0.125 ug with compound at 400 uM
Homo sapiens [23] = organism: Homo sapiens; assay: Mitogen-induced human lymphocyte proliferation measured by incorporation of [3H]thymidine in lymphocytes with Concanavalin A (Con A) at a concentration of 0.25 microg with compound at 10 uM
Homo sapiens [24] = organism: Homo sapiens; assay: Mitogen-induced human lymphocyte proliferation measured by incorporation of [3H]thymidine in lymphocytes with Phytohemagglutininin at a concentration of 0.125 ug with out compound
Homo sapiens [25] = organism: Homo sapiens; assay: Mitogen-induced human lymphocyte proliferation measured by incorporation of [3H]-thymidine in lymphocytes with Phytohemagglutininin at a concentration of 0.125 ug with compound at 50 uM
Homo sapiens [26] = organism: Homo sapiens; assay: Mitogen-induced human lymphocyte proliferation measured by incorporation of [3H]thymidine in lymphocytes with Pokeweed mitogen at a concentration of 1/2500 ug with compound at 1 uM
Homo sapiens [27] = organism: Homo sapiens; assay: Mitogen-induced human lymphocyte proliferation measured by incorporation of [3H]thymidine in lymphocytes with Phytohemagglutininin at a concentration of 0.125 ug with compound at 10 uM
Homo sapiens [28] = organism: Homo sapiens; assay: Mitogen-induced human lymphocyte proliferation measured by incorporation of [3H]thymidine in lymphocytes with Concanavalin A (Con A) at a concentration of 0.5 ug with compound at 1 uM
Homo sapiens [29] = organism: Homo sapiens; assay: Mitogen-induced human lymphocyte proliferation measured by incorporation of [3H]thymidine in lymphocytes with Concanavalin A (Con A) at a concentration of 0.5 ug with compound at 0.1 uM
Homo sapiens [30] = organism: Homo sapiens; assay: Mitogen-induced human lymphocyte proliferation measured by incorporation of [3H]thymidine in lymphocytes with Concanavalin A (Con A) at a concentration of 0.5 ug with compound at 10 uM
Homo sapiens [31] = organism: Homo sapiens; assay: Mitogen-induced human lymphocyte proliferation measured by incorporation of [3H]thymidine in lymphocytes with Concanavalin A (Con A) at a concentration of 0.5 ug with out compound
Homo sapiens [32] = organism: Homo sapiens; assay: Mitogen-induced human lymphocyte proliferation measured by incorporation of [3H]thymidine in lymphocytes with Concanavalin A (Con A) at a concentration of 0.5 ug with compound at 50 uM
Homo sapiens [33] = organism: Homo sapiens; assay: Mitogen-induced human lymphocyte proliferation measured by incorporation of [3H]thymidine in lymphocytes with Concanavalin A at a concentration of 0.5 ug with compound at 400 uM
Homo sapiens [34] = organism: Homo sapiens; assay: Mitogen-induced human lymphocyte proliferation measured by incorporation of [3H]-thymidine in lymphocytes with Pokeweed mitogen at a concentration of 1/2500 ug with out compound
Homo sapiens [35] = organism: Homo sapiens; assay: Mitogen-induced human lymphocyte proliferation measured by incorporation of [3H]-thymidine in lymphocytes with Pokeweed mitogen at a concentration of 1/2500 ug with compound at 1 uM
Homo sapiens [36] = organism: Homo sapiens; assay: Mitogen-induced human lymphocyte proliferation measured by incorporation of [3H]thymidine in lymphocytes with Phytohemagglutininin at a concentration of 0.25 ug with out compound
Homo sapiens [37] = organism: Homo sapiens; assay: Mitogen-induced human lymphocyte proliferation measured by incorporation of [3H]thymidine in lymphocytes with Phytohemagglutininin at a concentration of 0.25 ug with compound at 0.1 uM
Homo sapiens [38] = organism: Homo sapiens; assay: Mitogen-induced human lymphocyte proliferation measured by incorporation of [3H]thymidine in lymphocytes with Pokeweed mitogen at a concentration of 1/5000 ug with compound at 10 uM
Homo sapiens [39] = organism: Homo sapiens; assay: Mitogen-induced human lymphocyte proliferation measured by incorporation of [3H]thymidine in lymphocytes with Pokeweed mitogen at a concentration of 1/5000 ug with compound at 0.1 uM
Homo sapiens [40] = organism: Homo sapiens; assay: Mitogen-induced human lymphocyte proliferation measured by incorporation of [3H]thymidine in lymphocytes with Pokeweed mitogen at a concentration of 1/5000 ug with compound at 400 uM
Homo sapiens [41] = organism: Homo sapiens; assay: Mitogen-induced human lymphocyte proliferation measured by incorporation of [3H]thymidine in lymphocytes with Pokeweed mitogen at a concentration of 1/5000 ug with out compound
Homo sapiens [42] = organism: Homo sapiens; assay: Mitogen-induced human lymphocyte proliferation measured by incorporation of [3H]-thymidine in lymphocytes with Pokeweed mitogen at a concentration of 1/5000 ug with compound at 50 uM
Homo sapiens [43] = organism: Homo sapiens; assay: Mitogen-induced human lymphocyte proliferation measured by incorporation of [3H]thymidine in lymphocytes with Phytohemagglutininin at a concentration of 0.125 ug with compound at 50 uM
Homo sapiens [44] = organism: Homo sapiens; assay: Mitogen-induced human lymphocyte proliferation measured by incorporation of [3H]thymidine in lymphocytes with Pokeweed mitogen at a concentration of 1/5000 ug with compound at 1 uM

Structure (SMILES)	Incorporation (Homo sapiens [1])	Incorporation (Homo sapiens [2])	Incorporation (Homo sapiens [4])	Incorporation (Homo sapiens [7])	Incorporation (Homo sapiens [8])	Incorporation (Homo sapiens [9])	Incorporation (Homo sapiens [10])	Incorporation (Homo sapiens [13])	Incorporation (Homo sapiens [14])	Incorporation (Homo sapiens [15])	Incorporation (Homo sapiens [16])	Incorporation (Homo sapiens [17])	Incorporation (Homo sapiens [18])	Incorporation (Homo sapiens [19])	Incorporation (Homo sapiens [20])	Incorporation (Homo sapiens [22])	Incorporation (Homo sapiens [24])	Incorporation (Homo sapiens [26])	Incorporation (Homo sapiens [27])	Incorporation (Homo sapiens [34])	other results
Nc1nc2c(c(C(=O)O)nn2C2O[C@H](CO)[C@@H](O)[C@H]2O)c(=O)[nH]1 (some centres not stated)	31662	36867	21143	34808	29655	22619	32955	35813	20186	22446	21319	34537	28393								Incorporation (Homo sapiens [3]): 28436; Incorporation (Homo sapiens [5]): 27385; Incorporation (Homo sapiens [6]): 35867; Incorporation (Homo sapiens [11]): 25106; Incorporation (Homo sapiens [12]): 39189
NC(=O)[C@H](Cc1ccccc1)NC(=O)c1nn(C2O[C@H](CO)[C@@H](O)[C@H]2O)c2nc(N)[nH]c(=O)c12 (some centres not stated)		44634	27326	40511		30812		39180	24317	27642	26510	37204		35042	26149	42771	38473	41073	54960		Incorporation (Homo sapiens [21]): 31047; Incorporation (Homo sapiens [23]): 29989; Incorporation (Homo sapiens [25]): 53121
NC(=O)CNC(=O)c1nn(C2O[C@H](CO)[C@@H](O)[C@H]2O)c2nc(N)[nH]c(=O)c12 (some centres not stated)		44370		39719				44670				40023		32413	27956	66017	35075	42288	47343	39468	Incorporation (Homo sapiens [28]): 40503; Incorporation (Homo sapiens [29]): 43954; Incorporation (Homo sapiens [30]): 46662; Incorporation (Homo sapiens [31]): 43401; Incorporation (Homo sapiens [32]): 44360; Incorporation (Homo sapiens [33]): 43649; Incorporation (Homo sapiens [25]): 50056
NC(=O)CC[C@H](NC(=O)c1nn(C2O[C@H](CO)[C@@H](O)[C@H]2O)c2nc(N)[nH]c(=O)c12)C(N)=O (some centres not stated)	43877	45049	25758	44234	39824	24167	48588	46067	26181	28119	30068	29854	50331							40326	Incorporation (Homo sapiens [5]): 31799; Incorporation (Homo sapiens [35]): 39260; Incorporation (Homo sapiens [11]): 49448; Incorporation (Homo sapiens [36]): 57799
N=C(N)NCCC[C@H](NC(=O)[C@H](Cc1ccccc1)NC(=O)c1nn(C2O[C@H](CO)[C@@H](O)[C@H]2O)c2nc(N)[nH]c(=O)c12)C(N)=O (some centres not stated)	37174	18784		19755	33862		36688	17344				18394	46087	19743	22401	26854	23120	18470	36645	15723	Incorporation (Homo sapiens [28]): 36088; Incorporation (Homo sapiens [37]): 38673; Incorporation (Homo sapiens [38]): 8734; Incorporation (Homo sapiens [39]): 11906; Incorporation (Homo sapiens [40]): 8214; Incorporation (Homo sapiens [29]): 43850; Incorporation (Homo sapiens [41]): 7043; Incorporation (Homo sapiens [30]): 41908; Incorporation (Homo sapiens [31]): 35226; Incorporation (Homo sapiens [32]): 36977; Incorporation (Homo sapiens [33]): 30792; Incorporation (Homo sapiens [42]): 9960; Incorporation (Homo sapiens [43]): 21841; Incorporation (Homo sapiens [36]): 35768; Incorporation (Homo sapiens [44]): 8437

Source: ChEMBL document CHEMBL1124696, “Nucleoside peptides. 10. Synthesis and T-cell immunostimulatory properties of certain peptide derivatives of 6-azacadeguomycin” (1989)
